Data from patent publication US6358885B1, “Substituted phenylheterocyclic herbicides” (Mississippi State University, priority 1992, dated 2002).

Experiments:
[1] = test system: umbrella sedge; assay: Test C flood test plant response rating 0 to 100; type: in vivo, Cyperus difformis; conditions: for Plant response rating Umbrella sedge: flood test species listed under POSTEMERGENCE, 0 to 100 scale
From the text: (§1) The compounds evaluated in this test were formulated in a non-phytoxic solvent and applied to the soil surface before plant seedlings emerged (preemergence application), to water that covered the soil surface (flood application), and to plants that were in the one-to-four leaf stage (postemergence application). A sandy loam soil was used for the preemergence and postemergence tests, while a silt loam soil was used in the flood test. Water depth was approximately 2.5 cm for the flood test and was maintained at this level for the duration of the test. Plant species in the preemergence and postemergence tests consisted of barley (Hordeum vulgare), bedstraw (Galium aparine), blackgrass (Alopecurus myosuroides), chickweed (Stellaria media), corn (Zea mays), cotton (Gossypium hirsutum), crabgrass (Digitaria sanguinalis), downy brome (Bromus tectorum), giant foxtail (Setaria faberii), lambsquarters (Chenopodium album), morningglory (Ipomoea hederacea), pigweed ([…]), rape (Brassica napus), ryegrass (Lolium multiflorum), sorghum (Sorghum bicolor), soybean (Glycine max), speedwell (Veronica persica), sugar beet (Beta vulgaris), velvetleaf (Abutilon theophrasti), wheat (Triticum aestivum), wild buckwheat (Polygonum convolvulus), and wild oat (Avena fatua). All plant species were planted one day before application of the compound for the preemergence portion-of this test. Plantings of these species were adjusted to produce plants of appropriate size for the post-emergence portion of the test. […] All plant species were grown using normal greenhouse practices. Visual evaluations of injury expressed on treated plants, when compared to untreated controls, were recorded approximately fourteen to twenty one days after application of the test compound. […] A dash (-) response means no test result.

[2] = test system: wild buckwheat; assay: Test B preemergence/postemergence greenhouse plant response rating 0 to 10; type: in vivo, Polygonum convolvulus; conditions: 0 to 10 scale
Summary of the method: (§2)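 Both application timings were run together: seeds got compound preemergence, and established seedlings (two to eighteen cm) got it postemergence. Non-phytotoxic solvent carried the chemical. Ratings are visual, versus controls, at twelve to sixteen days.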

[3] = test system: velvetleaf; assay: Test C preemergence/postemergence greenhouse plant response rating 0 to 100; type: in vivo, Abutilon theophrasti; conditions: POSTEMERGENCE; for Plant response rating, Velvetleaf: 0 to 100 scale
From the text: as §1

[4] = test system: cheatgrass; assay: Test B preemergence/postemergence greenhouse plant response rating 0 to 10; type: in vivo, Bromus secalinus; conditions: for Plant response rating, Cheatgrass: 0 to 10 scale
Summary of the method: as §2

[5] = test system: lambsquarters; assay: as above; type: in vivo, Chenopodium album; conditions: 0 to 10 scale
Summary of the method: as §2

[6] = test system: barley; assay: Test C preemergence/postemergence greenhouse plant response rating 0 to 100; type: in vivo, Hordeum vulgare; conditions: POSTEMERGENCE; for Plant response rating Barley Igri: 0 to 100 scale
From the text: as §1

[7] = test system: rape; assay: as above; type: in vivo, Brassica napus; conditions: POSTEMERGENCE; for Plant response rating, Rape: 0 to 100 scale
From the text: as §1

[8] = test system: corn; assay: as above; type: in vivo, Zea mays; conditions: POSTEMERGENCE; for Plant response rating, Corn: 0 to 100 scale
From the text: as §1

[9] = test system: sorghum; assay: as above; type: in vivo, Sorghum bicolor; conditions: POSTEMERGENCE; for Plant response rating, Sorghum: 0 to 100 scale
From the text: as §1

[10] = test system: soybean; assay: Test B preemergence/postemergence greenhouse plant response rating 0 to 10; type: in vivo, Glycine max; conditions: 0 to 10 scale
Summary of the method: as §2

[11] = test system: morningglory; assay: Test C preemergence/postemergence greenhouse plant response rating 0 to 100; type: in vivo, Ipomoea hederacea; conditions: POSTEMERGENCE; for Plant response rating, Morningglory: 0 to 100 scale
From the text: as §1

[12] = test system: purple nutsedge; assay: Test B preemergence/postemergence greenhouse plant response rating 0 to 10; type: in vivo, Cyperus rotundus; conditions: 0 to 10 scale
Summary of the method: as §2

[13] = test system: lambsquarters; assay: Test C preemergence/postemergence greenhouse plant response rating 0 to 100; type: in vivo, Chenopodium album; conditions: POSTEMERGENCE; for Plant response rating Lambsquarters: 0 to 100 scale
From the text: as §1

[14] = test system: rice; assay: Test B preemergence/postemergence greenhouse plant response rating 0 to 10; type: in vivo, Oryza sativa; conditions: 0 to 10 scale
Summary of the method: as §2

[15] = test system: sugar beet; assay: Test C preemergence/postemergence greenhouse plant response rating 0 to 100; type: in vivo, Beta vulgaris; conditions: POSTEMERGENCE; for Plant response rating, Sugar beet: 0 to 100 scale
From the text: as §1

[16] = test system: soybean; assay: as above; type: in vivo, Glycine max; conditions: POSTEMERGENCE; for Plant response rating, Soybean: 0 to 100 scale
From the text: as §1

[17] = test system: cotton; assay: Test B preemergence/postemergence greenhouse plant response rating 0 to 10; type: in vivo, Gossypium hirsutum; conditions: for Plant response rating, Cotton: 0 to 10 scale
Summary of the method: as §2

[18] = test system: velvetleaf; assay: as above; type: in vivo, Abutilon theophrasti; conditions: 0 to 10 scale
Summary of the method: as §2

COC(=O)C(C)Oc1cc(-c2nn3c(c2Cl)CCCC3)c(F)cc1Cl (stereo not drawn) [Compound 28]
Plant response rating (0 to 100), Umbrella sedge ([1]; POSTEMERGENCE section, flood test, Rate 4 g/ha): 0 | Plant response rating (0 to 100), Umbrella sedge ([1]; Rate 16 g/ha, under POSTEMERGENCE head (flood test species)): 0 | Plant response rating Umbrella sedge ([1]; 62 g/ha): 20 | Plant response rating Umbrella sedge ([1]; 250 g/ha): 70 | Plant response rating, Wild buckwheat ([2]; POSTEMERGENCE, Rate 50 g/ha): 9 | Plant response rating, Wild buckwheat ([2]; POSTEMERGENCE, Rate 200 g/ha): 10 | Plant response rating, Wild buckwheat ([2]; PREEMERGENCE, Rate 50 g/ha): 7 | Plant response rating, Wild buckwheat ([2]; Rate 200 g/ha, PREEMERGENCE): 7 | Plant response rating, Velvetleaf ([3]; 62 g/ha): 100 | Plant response rating, Velvetleaf ([3]; 250 g/ha): 100 | Plant response rating (0 to 100), Velvetleaf ([3]; Rate 4 g/ha): 100 | Plant response rating (0 to 100), Velvetleaf ([3]; Rate 16 g/ha): 100 | Plant response rating (0 to 10 scale), Cheatgrass ([4]; POSTEMERGENCE, Rate 50 g/ha): 6 | Plant response rating, Cheatgrass ([4]; POSTEMERGENCE, Rate 200 g/ha): 9 | Plant response rating, Cheatgrass ([4]; PREEMERGENCE, Rate 50 g/ha): 4 | Plant response rating, Cheatgrass ([4]; Rate 200 g/ha, PREEMERGENCE): 6 | Plant response rating, Lambsquarter ([5]; POSTEMERGENCE, Rate 50 g/ha): 10 | Plant response rating, Lambsquarter ([5]; POSTEMERGENCE, Rate 200 g/ha): 10 | Plant response rating, Lambsquarter ([5]; PREEMERGENCE, Rate 50 g/ha): 10 | Plant response rating, Lambsquarter ([5]; Rate 200 g/ha, PREEMERGENCE): 10 | Plant response rating Barley Igri ([6]; 62 g/ha): 40 | Plant response rating Barley Igri ([6]; 250 g/ha): 50 | Plant response rating (0 to 100), Barley Igri ([6]; Rate 4 g/ha): 20 | Plant response rating (0 to 100), Barley Igri ([6]; Rate 16 g/ha): 30 | Plant response rating, Rape ([7]; 62 g/ha): 100 | Plant response rating, Rape ([7]; 250 g/ha): 100 | Plant response rating (0 to 100), Rape ([7]; Rate 4 g/ha): 50 | Plant response rating (0 to 100), Rape ([7]; Rate 16 g/ha): 70 | Plant response rating, Corn ([8]; 62 g/ha): 80 | Plant response rating, Corn ([8]; 250 g/ha): 90 | Plant response rating (0 to 100), Corn ([8]; Rate 4 g/ha): 20 | Plant response rating (0 to 100), Corn ([8]; Rate 16 g/ha): 25 | Plant response rating, Sorghum ([9]; 62 g/ha): 100 | Plant response rating, Sorghum ([9]; 250 g/ha): 100 | Plant response rating (0 to 100), Sorghum ([9]; Rate 4 g/ha): 20 | Plant response rating (0 to 100), Sorghum ([9]; Rate 16 g/ha): 50 | Plant response rating, Soybean ([10]; POSTEMERGENCE, Rate 50 g/ha): 8 | Plant response rating, Soybean ([10]; POSTEMERGENCE, Rate 200 g/ha): 9 | Plant response rating, Soybean ([10]; PREEMERGENCE, Rate 50 g/ha): 0 | Plant response rating, Soybean ([10]; Rate 200 g/ha, PREEMERGENCE): 0 | Plant response rating, Morningglory ([11]; 62 g/ha): 100 | Plant response rating, Morningglory ([11]; 250 g/ha): 100 | Plant response rating (0 to 100), Morningglory ([11]; Rate 4 g/ha): 50 | Plant response rating (0 to 100), Morningglory ([11]; Rate 16 g/ha): 80 | Plant response rating, Nutsedge ([12]; POSTEMERGENCE, Rate 50 g/ha): 2 | Plant response rating, Nutsedge ([12]; POSTEMERGENCE, Rate 200 g/ha): 5 | Plant response rating, Nutsedge ([12]; PREEMERGENCE, Rate 50 g/ha): 0 | Plant response rating, Nutsedge ([12]; Rate 200 g/ha, PREEMERGENCE): 0 | Plant response rating Lambsquarters ([13]; 62 g/ha): 80 | Plant response rating Lambsquarters ([13]; 250 g/ha): 100 | Plant response rating (0 to 100), Lambsquarters ([13]; Rate 4 g/ha): 50 | Plant response rating (0 to 100), Lambsquarters ([13]; Rate 16 g/ha): 80 | Plant response rating, Rice ([14]; POSTEMERGENCE, Rate 50 g/ha): 5 | Plant response rating, Rice ([14]; POSTEMERGENCE, Rate 200 g/ha): 7 | Plant response rating, Rice ([14]; PREEMERGENCE, Rate 50 g/ha): 0 | Plant response rating, Rice ([14]; Rate 200 g/ha, PREEMERGENCE): 2 | Plant response rating, Sugar beet ([15]; 62 g/ha): 100 | Plant response rating, Sugar beet ([15]; 250 g/ha): 100 | Plant response rating (0 to 100), Sugar beet ([15]; Rate 4 g/ha): 100 | Plant response rating (0 to 100), Sugar beet ([15]; Rate 16 g/ha): 100 | Plant response rating, Soybean ([16]; 62 g/ha): 70 | Plant response rating, Soybean ([16]; 250 g/ha): 80 | Plant response rating (0 to 100), Soybean ([16]; Rate 4 g/ha): 0 | Plant response rating (0 to 100), Soybean ([16]; Rate 16 g/ha): 30 | Plant response rating (0 to 10 scale), Cotton ([17]; POSTEMERGENCE, Rate 50 g/ha): 10 | Plant response rating, Cotton ([17]; POSTEMERGENCE, Rate 200 g/ha): 10 | Plant response rating, Cotton ([17]; PREEMERGENCE, Rate 50 g/ha): 0 | Plant response rating, Cotton ([17]; Rate 200 g/ha, PREEMERGENCE): 0 | Plant response rating, Velvetleaf ([18]; POSTEMERGENCE, Rate 50 g/ha): 10 | Plant response rating, Velvetleaf ([18]; POSTEMERGENCE, Rate 200 g/ha): 10 | Plant response rating, Velvetleaf ([18]; PREEMERGENCE, Rate 50 g/ha): 5 | Plant response rating, Velvetleaf ([18]; Rate 200 g/ha, PREEMERGENCE): 10
